Experimental findings from patent EP4772500A1, “NOVEL ISOXAZOLE COMPOUND AS TM4SF5-SPECIFIC INHIBITOR AND USE THEREOF” (Seoul National University R&DB Foundation, priority 2023, dated 2025) are described below.

For test [1], the system named is TM4SF5-expressing cells (SNU449T7). The experiment in a line: Western blotting for signaling factors whose phosphorylation increases in a TM4SF5-expression dependent manner. The class given is cell-based, human. The settings on record: for phosphorylation of FAK, c-Src, STAT3, p27, S6K1, and AKT / phosphorylation of FAK, STAT3, c-Src, S6K1, Akt, and p27: given concentrations; for phosphorylation of FAK, c-Src, STAT3, p27, S6K1, AKT, and STAT5: 24 hours (FIG. 9a-b). The procedure: Cell extracts were obtained from cells grown to a density of 70-80% without any treatment, or from cells treated with vehicle DMSO or drugs at the given concentrations for 24 hours. For the extract of hepatocytes or liver cancer cells, a lysis buffer (150 mM NaCl, 1% NP-40, 50 mM Tris-HCl, 0.25% sodium deoxycholate, pH 7.4) including a protease inhibitor cocktail (GenDEPOT) was used. In addition, after washing animal liver tissue twice with PBS, SDS, Na3VO4, and protease inhibitor cocktails (GenDEPOT) were added to a lysis buffer [50 mM Tris-HCl, pH 7.4, 1% NP40, 0.25% sodium deoxycholate, 150 mM NaCl, 1 mM EDTA (based on 500 ml)], followed by treatment at 4°C for 15 minutes. After centrifugation at 13,000 rpm at 4°C for 30 minutes, only the supernatant was transferred to a new microcentrifuge tube. After quantification using BCA reagent (Thermo Scientific), a 4 × sample buffer [100% glycerol 4 ml, Tris-HCl, pH 6.8, 2.4 ml, SDS 0.8 g, Bromophenol blue 4 mg, betamercaptoethanol 0.4 ml, H2O 3.1 ml (based on 10 ml)] was added, followed by boiling at 100°C for 5 minutes. After performing SDS-PAGE electrophoresis with the above samples and transferring them to Nitrocellulose Membranes Protran™ nitrocellulose membranes (Whatman), pre-treatment was performed with 5% skim milk for 1 hour. After pre-treatment, primary antibodies of p-FAK(Y861) (SC-16663), p-FAK(Y577) (SC-16665), c-Src (SC-8056), STAT3 (SC-8019), p-AKT 1/2/3(S473) (SC-7985), STATS (SC-835), Laminin γ2 (SC-393225), COL1A1 (SC-28657), CCL5(RANTES) (SC-514019) CCL20(MIP-3α) (SC-517441), SIRT1 (SC-74465), ChREBP (SC-515922), SREBP1 (SC-366513), DGAT1 (SC-271934), DGAT2 (SC-293211), MICA/B (SC-137242), SLAMF7 (SC-390840), α-tublin (SC-5286), β-actin (SC-47778), FUCA (SC-365496) (the above from Santa Cruz Biotech, USA), p-FAK(Y397) (cat # 611723), FAK (cat # 610088), p27 (cat # 610242) (the above from BD Transduction, USA), p-FAK(Y925) (#3284) p-c-Src(Y416) (#2101), p-STAT3(Y705) (#9145), p70S6K1 (#9202), p-p70S6K1(T389) (#9205), p-STAT5(Y694) (#9314), ACC (#3676), FASN (#3189), CPT1A (#12252), p-ACC(S79) (#11818), HA (#3724), PD-L1 (#13684), PD-1 (#86163), p-ERK1/2(T202/Y204) (#9101s), ERK1/2 (#9102s) (the above from Cell Signaling Tech., USA), pS10p27(S10) (ab62364), human SLAMF6 (ab224201), TIGIT (ab233404), CD34 (ab81289) (the above from Abcam, UK), mouse SLAMF6 (PA5-87823), NKG2D (PA5-102038) (the above from Thermofisher, USA), α-SMA (Sigma Aldrich, A5228), CCL2 (Invitrogen, MA5-17040), and CD155(PVR) (Biolegend, 337601), HA (Biolegend, USA), Strep-HRP(horse-radish peroxidase), StrepMAB-HRP (IBA, USA), AFP (FineTest, FNab00203) were reacted at 4°C for 15 hours. The next day, secondary antibodies were reacted, and development was performed on X-ray film using ECL (Pierce, USA). Anti-TM4SF5C-ter (epitope region of RKKQDTPH^197) and anti-TM4SF5EC2 (CLMNGEWGYHFEDTAGA^130) were custom-made at a professional antibody production company (Pro-Sci, Poway, CA, USA).
Cell extracts were obtained before and after treating TM4SF5-non-expressing cells (SNU449Cp) and TM4SF5-expressing cells (SNU449T7) with ST-1-024 or ST-1-025 drugs at the given concentrations for 24 hours, and Western blotting was performed for signaling factors whose phosphorylation and activity increase in a TM4SF5-expression dependent manner.
(a) Cell extracts were obtained after treating TM4SF5-non-expressing cells (SNU449Cp) and TM4SF5-expressing cells (SNU449T7) with vehicle (DMSO), TSAHC, or isoxazole compounds ST-2-001, ST-2-002, ST-2-003, ST-2-004, ST-2-005, ST-2-006, ST-2-007, ST-2-008, ST-2-009, ST-2-010, or ST-2-011 at a dose of 5 µM (for 24 hours). Using these, Western blotting was performed for signaling factors whose phosphorylation and activity increase in a TM4SF5-expression dependent manner. […]

The test system is the same in test [2]. The test is described as follows: 3D sphere growth/proliferation. It is filed as cell-based, human. Particulars: for degree of cell proliferation (spheres): 2.5 µM on the 0 and 3rd days, observed 6th day (FIG. 5b); for survival/proliferation of the spheres: given concentrations on the 0, 3, 6, and 9th days, observed 10th day (FIG. 12b-c); for cell proliferation inhibitory effect: 0.5 or 2.5 µM (FIG. 10a, b), comparison among drugs. The procedure: TM4SF5-non-expressing cells (SNU449Cp) and TM4SF5-expressing cells (SNU449T7) of the same number (200 cells/well or 1000 cells/well) were added per well into Costar Ultra-Low Attachment Multiple Well Plates (CORNING), and were then treated with vehicle (DMSO) or drugs at various concentrations and cultured in a cell incubator under conditions of 37°C and 5% CO2. After repeatedly treating with the same concentrations of drugs every few days at regular intervals as indicated from the date of cell culture, the proliferation of the cells (spheres) was observed and photographed using an optical microscope on the last day of observation.
The drugs treated were the positive control drug TSAHC or the ST-1-025 isoxazole compound at the given concentrations. From the time of starting culture (0 day), (FIG. 3a) in the case of 2D culture, the number of cells was measured after treating with the drug every 24 hours, or (FIG. 3b) in a 3D environment, the proliferation of cells (spheres) was observed and photographed with an optical microscope on the 5th and 7th days after a single drug treatment at the start of culture. […]

Setting [3] is: SNU449T7, given concentrations, 24 hours (FIG. 2).
Where [4] appears, read: single treatment at 5 µM at start of culture, observed 5th and 7th days (FIG. 3b).
[5] abbreviates: 0.1 or 1.0 µM, observed 10th day (FIG. 10c).
Setting [6] is: 0.5 or 2.5 µM, observed 6th or 10th day (FIG. 10a, b).

Molecules are shown by their SMILES.

Consider `Cc1ccc(S(=O)(=O)Nc2ccc(C(=O)/C=C/c3ccc(O)cc3)cc2)cc1` [TSAHC, 4'-(p-toluenesulfonylamino)-4-hydroxychalcone, reference compound], for which the “phosphorylation of FAK, c-Src, STAT3, and p27” value in test [1] (5 µM, 24 hours (FIG. 5a)) is listed as “decreased”; in test [1] (setting [3]), “decreased”. Moreover, the “phosphorylation of FAK, c-Src, STAT3, p27, S6K1, and AKT” value (from here on “phosphorylation of FAK, c-Src … and AKT”) in test [1] (24 hours (FIG. 5c)) is listed as “decreased in a drug concentration-dependent manner”. Besides, the “degree of cell proliferation (spheres)” value in test [2] is given as “inhibited”. Further, the “degree of sphere proliferation” value in test [2] (setting [4]) was “inhibited, albeit slightly”.

Consider `COc1ccc(-c2cc(-c3ccc(N)cc3)no2)cc1` [ST-1-025, 4-(5-(4-methoxyphenyl)isoxazole-3-yl)aniline], for which the “phosphorylation of FAK, c-Src, STAT3, and p27” value in test [1] (setting [3]) is recorded as “decreased”. Further, the “degree of sphere proliferation” value in test [2] (repeated treatment at given concentrations on the 0, 5, and 6th days, observed 7th day (FIG. 3c)) was “inhibited by ST-1-025 in a concentration-dependent manner, albeit slightly”; in test [2] (setting [4]) it was “inhibited, albeit slightly”.

Regarding `CC(=O)Nc1ccc(-c2cc(-c3ccc(O)cc3)no2)cc1` [ST-5-001, N-(4-(3-(4-hydroxyphenyl)isoxazole-5-yl)phenyl)acetamide], the “phosphorylation of FAK, STAT3, c-Src, S6K1, Akt, and p27” value (“phosphorylation of FAK, STAT3, c-Src” below) in test [1] (24 hours (FIG. 12d)) was “inhibited”. The “survival/proliferation of the spheres” value in test [2] is “inhibited”.

As for `CC(=O)Nc1ccc(-c2cc(-c3ccc(F)cc3)on2)cc1` [ST-3-006, N-(4-(5-(4-fluorophenyl)isoxazole-3-yl)phenyl)acetamide], in test [1] (5 µM), the “phosphorylation of FAK, c-Src, STAT3, p27, S6K1, AKT, and STAT5” value (“phosphorylation of FAK, c-Src … and STAT5” below) is “decreased”. In addition, the “phosphorylation of FAK, c-Src … and AKT” value in test [1] (24 hours (FIG. 9c)) is recorded as “decreased in a concentration-dependent manner”. The results for the “degree of three-dimensional cell proliferation” value in test [2] (setting [5]) and in test [2] (setting [6]) were “decreased” and “inhibited”, respectively. Also, the “cell proliferation inhibitory effect” value in test [2] was “strong”.

Take `COc1ccc(-c2cc(-c3ccc(NC(C)=O)cc3)no2)cc1` [ST-2-001, N-(4-(5-(4-methoxyphenyl)isoxazole-3-yl)phenyl)acetamide]: in test [1] (5 µM, 24 hours (FIG. 5a)), the “phosphorylation of FAK, c-Src, STAT3, and p27” value is “decreased”. The “phosphorylation of FAK, c-Src … and STAT5” value in test [1] (5 µM) is “decreased”. The entries for the “phosphorylation of FAK, c-Src … and AKT” value in test [1] (24 hours (FIG. 5c)) and in test [1] (24 hours (FIG. 9c)) were “decreased in a drug concentration-dependent manner” and “decreased in a concentration-dependent manner”, respectively. Further, the “phosphorylation of FAK, STAT3, c-Src” value in test [1] (24 hours (FIG. 12a)) was “inhibited in many cases including STAT3, S6K1, and FAK”; in test [1] (24 hours (FIG. 12d)) it was “inhibited”. Further, the “degree of cell proliferation (spheres)” value in test [2] was “inhibited”. Further, the “cell proliferation inhibitory effect” value in test [2] was “strong”. For the same compound, in test [2] (setting [6]), the “degree of three-dimensional cell proliferation” value is reported as “inhibited”. In addition, the “survival/proliferation of the spheres” value in test [2] is given as “inhibited”.

As to `COc1ccc(-c2cc(-c3cccc(NC(C)=O)c3)no2)cc1` [ST-3-011, N-(3-(5-(4-methoxyphenyl)isoxazole-3-yl)phenyl)acetamide], in test [1] (5 µM), the “phosphorylation of FAK, c-Src … and STAT5” value is reported as “decreased”. Besides, the “phosphorylation of FAK, c-Src … and AKT” value in test [1] (24 hours (FIG. 9c)) is on record as “decreased in a concentration-dependent manner”. For the same compound, the “degree of three-dimensional cell proliferation” value is “decreased” in test [2] (setting [5]) and “inhibited” in test [2] (setting [6]).

`Cc1ccc(C(=O)Nc2ccc(-c3cc(-c4ccc(O)cc4)no3)cc2)cc1` [ST-5-002, N-(4-(3-(4-hydroxyphenyl)isoxazole-5-yl)phenyl)-4-methylbenzamide]: the phosphorylation inhibitory efficacy entry in test [1] (drug with improved purity (FIG. 12d)) was “maintained and further improved”. The “phosphorylation of FAK, STAT3, c-Src” value in test [1] (24 hours (FIG. 12d)) is “inhibited”. Further, the “survival/proliferation of the spheres” value in test [2] is given as “inhibited”.
